Measurements published in patent US9382257B2, “Substituted pyrrolo[2,3-b]pyrazines as serine/threonine kinase inhibitors” (Genentech, Inc., priority 2002, dated 2016).

What was measured:
[1] = test system: PMA-stimulated P90RSK(Ser380) phosphorylation in HepG2 cells; assay: Cellular P90RSK(Ser380) Phosphorylation Assay (Example 4); assay type: cell-based; conditions: Homo sapiens, 1.5 hour compound incubation, PMA 100 ng/mL, normalized to GAPDH, read-out: RSK Inhibition IC50
Procedure: Cellular P90RSK(Ser380) Phosphorylation Assay
Inhibition of PMA-stimulated P90RSK(Ser380) phosphorylation was determined by the following in vitro cellular mechanistic assay, which comprises incubating cells with a compound for 1.5 hours and quantifying fluorescent pP90RSK(Ser380) signal on fixed cells and normalizing to GAPDH signal.
Materials and Methods: HepG2 cells were obtained from ATCC and grown in DMEM supplemented with 10% fetal bovine serum. Cells were plated in 96-well plates at 35,000 cells/well and allowed to attach overnight at 37° C./5% CO2. Diluted compounds were then added at a final concentration of 0.5% DMSO. After 1.5 hour compound incubation, cells were stimulated with the addition of PMA (phorbol 12-myristate 13-acetate) at a final concentration of 100 ng/mL; the PMA stimulation was a 30-minute incubation at 37° C./5% CO2. After the 30-minute PMA stimulation, cells were washed with PBS and fixed in 3.7% formaldehyde in PBS at room temperature for 15-20 minutes. This was followed by another wash in PBS and then permeabilization in 100% MeOH at room temperature for 10-15 minutes. Following the permeabilization incubation, cells were washed in PBS/0.05% Tween-20, followed by a block in Odyssey blocking buffer (LI-COR Biosciences) for at least 1 hour. Antibodies to phosphorylated P90RSK(Ser380) (Cell Signaling #9335, rabbit monoclonal) and GAPDH (Fitzgerald 10R-G109a, mouse monoclonal) were added to the cells and incubated overnight at 4° C. pP90RSK(Ser380) antibody was used at a 1:250 dilution; GAPDH was used at a 1:10,000 dilution. After washing with PBS/0.05% Tween-20, the cells were incubated with fluorescently-labeled secondary antibodies (Anti-rabbit-Alexa Flour680, Invitrogen Cat#A21109; Anti-mouse-IRDye800CW, Rockland Inc. Cat#610-131-121) for 1 hour. Both secondary antibodies were used at a 1:1000 dilution. Cells were then washed and analyzed for fluorescence at both wavelengths using the Odyssey Infrared Imaging System (LI-COR Biosciences). Phosphorylated P90RSK(Ser380) signal was normalized to GAPDH signal. Representative date is in TABLE 2 (infra).

[2] = target: T1, human ERK-2 (Mitogen Activated Kinase 1) (Homo sapiens, UniProt P28482); assay: ERK-2 Enzymatic Assay (Example 2); assay type: biochemical; conditions: Omnia peptide S/T17, 25 μM ATP, read-out: ERK Inhibition IC50
T1 construct: n-terminal 6-His fusion protein in E. coli and corresponding to aa 8-360; 6-His (N); made in house; host or cells: E. coli
T1 sequence (P28482 8-360): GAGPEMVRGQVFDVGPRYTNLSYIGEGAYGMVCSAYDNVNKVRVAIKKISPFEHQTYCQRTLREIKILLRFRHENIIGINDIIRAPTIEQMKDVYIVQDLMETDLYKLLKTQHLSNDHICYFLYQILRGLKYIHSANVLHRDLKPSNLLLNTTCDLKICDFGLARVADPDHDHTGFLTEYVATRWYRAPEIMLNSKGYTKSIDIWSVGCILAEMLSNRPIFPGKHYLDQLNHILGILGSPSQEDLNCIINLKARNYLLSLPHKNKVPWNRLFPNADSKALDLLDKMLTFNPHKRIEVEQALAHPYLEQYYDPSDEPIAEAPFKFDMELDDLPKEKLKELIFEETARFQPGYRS
Procedure: Compounds were tested in an enzymatic assay using human ERK-2 (Mitogen Activated Kinase 1), recombinantly expressed as an n-terminal 6-His fusion protein in E. coli and corresponding to aa 8-360. The substrate used was the fluorescent Omnia peptide S/T17 (Invitrogen of Carlsbad, Calif.; Cat. KNZ1171C). Test compounds were diluted in DMSO in 3-fold serial dilutions at 100× final concentrations. […] The assay was run at ambient temperature in a white 384-well polypropylene plate (Nunc, Inc of Naperville, Ill.; Cat. 267462) collecting data every 50 seconds for approximately 30 minutes on an Envision plate reader (PerkinElmer, Inc. of Waltham, Mass.); Excitation 340 nm/Emission 495 nm. The data collected from each well was fit to a straight line and the resulting rates were used to calculate percent of control. Percent of control was plotted against compound concentration and IC50 values were determined using a four-parameter fit. Representative date is in TABLE 2 (infra).

SMILES	IC50 [2] [nM]	IC50 [1] [nM]
Cc1n[nH]cc1-c1cnc2[nH]cc(-c3cnn(CCc4ccc(C(F)(F)F)cc4)c3)c2n1 [I-18, 2-(3-methyl-1H-pyrazol-4-yl)-7-{1-[2-(4-trifluoromethyl-phenyl)-ethyl]-1H-pyrazol-4-yl}-5H-pyrrolo[2,3-b]pyrazine]	44.4	≥ 50000
Cc1[nH]ncc1-c1cnc2[nH]cc(-c3cnn(Cc4ccccc4[N+](=O)[O-])c3)c2n1 [I-5, 2-(5-methyl-1H-pyrazol-4-yl)-7-[1-(2-nitro-benzyl)-1H-pyrazol-4-yl]-5H-pyrrolo[2,3-b]pyrazine]	1.5	97.2
Cc1[nH]ncc1-c1cnc2[nH]cc(-c3cnn(Cc4ccccc4C#N)c3)c2n1 [I-4, 2-{4-[2-(5-methyl-1H-pyrazol-4-yl)-5H-pyrrolo[2,3-b]pyrazin-7-yl]-pyrazol-1-ylmethyl}-benzonitrile]	1.3	202
Cc1n[nH]cc1-c1cnc2[nH]cc(-c3cnn(C(C)(C)c4ccccc4)c3)c2n1 [I-17, 7-[1-(1-methyl-1-phenyl-ethyl)-1H-pyrazol-4-yl]-2-(3-methyl-1H-pyrazol-4-yl)-5H-pyrrolo[2,3-b]pyrazine]	36	2300
COc1ccc(Cn2cc(-c3c[nH]c4ncc(-c5cn[nH]c5C)nc34)cn2)cc1F [I-7, 7-[1-(3-fluoro-4-methoxy-benzyl)-1H-pyrazol-4-yl]-2-(5-methyl-1H-pyrazol-4-yl)-5H-pyrrolo[2,3-b]pyrazine]	1.89	340
Cc1[nH]ncc1-c1cnc2[nH]cc(-c3cnn(Cc4ccccc4OC(F)F)c3)c2n1 [I-8, 7-[1-(2-difluoromethoxy-benzyl)-1H-pyrazol-4-yl]-2-(5-methyl-1H-pyrazol-4-yl)-5H-pyrrolo[2,3-b]pyrazine]	2.5	191
Cc1[nH]ncc1-c1cnc2[nH]cc(-c3cnn(Cc4ccc(F)c(Cl)c4)c3)c2n1 [I-2, 7-[1-(3-chloro-4-fluoro-benzyl)-1H-pyrazol-4-yl]-2-(5-methyl-1H-pyrazol-4-yl)-5H-pyrrolo[2,3-b]pyrazine]	2.36	276
Cc1[nH]ncc1-c1cnc2[nH]cc(-c3cnn(C(C)c4ccccc4Cl)c3)c2n1 (stereo not drawn) [I-25, 7-{1-[1-(2-chloro-phenyl)-ethyl]-1H-pyrazol-4-yl}-2-(5-methyl-1H-pyrazol-4-yl)-5H-pyrrolo[2,3-b]pyrazine]	2.2	200
Cc1n[nH]c(C)c1-c1cnc2[nH]cc(-c3cnn(Cc4cccc(F)c4)c3)c2n1 [I-10, 2-(3,5-dimethyl-1H-pyrazol-4-yl)-7-[1-(3-fluoro-benzyl)-1H-pyrazol-4-yl]-5H-pyrrolo[2,3-b]pyrazine]	2.7	387
Fc1cccc(Cn2cc(-c3c[nH]c4ncc(-c5cn[nH]c5)nc34)cn2)c1 [I-3, 7-[1-(3-fluoro-benzyl)-1H-pyrazol-4-yl]-2-(1H-pyrazol-4-yl)-5H-pyrrolo[2,3-b]pyrazine]	2.75	403
Cc1[nH]ncc1-c1cnc2[nH]cc(-c3cnn(Cc4cccc5cccnc45)c3)c2n1 [I-15, 8-{4-[2-(5-methyl-1H-pyrazol-4-yl)-5H-pyrrolo[2,3-b]pyrazin-7-yl]-pyrazol-1-ylmethyl}-quinoline]	14	651
Cc1[nH]ncc1-c1cnc2[nH]cc(-c3cnn(Cc4cc(F)ccc4Cl)c3)c2n1 [I-24, 7-[1-(2-chloro-5-fluoro-benzyl)-1H-pyrazol-4-yl]-2-(5-methyl-1H-pyrazol-4-yl)-5H-pyrrolo[2,3-b]pyrazine]	2.02	371
Cc1[nH]ncc1-c1cnc2[nH]cc(-c3cnn([C@@H](C)c4ccccc4Cl)c3)c2n1 [I-9, 7-{1-[(S)-1-(2-chloro-phenyl)-ethyl]-1H-pyrazol-4-yl}-2-(5-methyl-1H-pyrazol-4-yl)-5H-pyrrolo[2,3-b]pyrazine]	2.8	299
Cc1[nH]ncc1-c1cnc2[nH]cc(-c3cnn(Cc4ccc(F)cc4F)c3)c2n1 [I-1, 7-[1-(2,4-difluoro-benzyl)-1H-pyrazol-4-yl]-2-(5-methyl-1H-pyrazol-4-yl)-5H-pyrrolo[2,3-b]pyrazine]	1.23	242
c1ccc(Cn2cc(-c3c[nH]c4ncc(-c5ccncc5)nc34)cn2)cc1 [I-21, 7-(1-benzyl-1H-pyrazol-4-yl)-2-(pyridin-4-yl)-5H-pyrrolo[2,3-b]pyrazine]	6.9	1300
COc1cccc(F)c1Cn1cc(-c2c[nH]c3ncc(-c4cn[nH]c4C)nc23)cn1 [I-26]	3.4	518
Cc1[nH]ncc1-c1cnc2[nH]cc(-c3cnn(Cc4cc(F)ccc4C#N)c3)c2n1 [I-27, 4-fluoro-2-{4-[2-(5-methyl-1H-pyrazol-4-yl)-5H-pyrrolo[2,3-b]pyrazin-7-yl]-pyrazol-1-ylmethyl}-benzonitrile]	24.8	2000
Fc1cccc(Cn2cc(-c3c[nH]c4ncc(-c5ccncc5)nc34)cn2)c1 [I-11, 7-[1-(3-fluoro-benzyl)-1H-pyrazol-4-yl]-2-pyridin-4-yl-5H-pyrrolo[2,3-b]pyrazine]	2.77	501
Cc1[nH]ncc1-c1cnc2[nH]cc(-c3cnn(Cc4c(F)cccc4Cl)c3)c2n1 [I-6, 7-[1-(2-chloro-6-fluoro-benzyl)-1H-pyrazol-4-yl]-2-(5-methyl-1H-pyrazol-4-yl)-5H-pyrrolo[2,3-b]pyrazine]	1.84	214
O=C(NCc1cncc(-c2c[nH]c3ncc(-c4cn[nH]c4)nc23)c1)c1ccc(F)cc1 [II-3, 4-fluoro-N-{5-[2-(1H-pyrazol-4-yl)-5H-pyrrolo[2,3-b]pyrazin-7-yl]-pyridin-3-ylmethyl}-benzamide]	–	1600

The next lines start with results.

IC50 [2] [nM]	SMILES	IC50 [1] [nM]
198	Cc1cc(C(=O)NCc2cncc(-c3c[nH]c4ncc(-c5cn[nH]c5)nc34)c2)no1 [II-4]	3700
144	Cn1nccc1C(=O)NCc1cncc(-c2c[nH]c3ncc(-c4cn[nH]c4)nc23)c1 [II-9, 2-methyl-2H-pyrazole-3-carboxylic acid {5-[2-(1H-pyrazol-4-yl)-5H-pyrrolo[2,3-b]pyrazin-7-yl]-pyridin-3-ylmethyl}-amide]	≥ 50000
30.1	Cc1[nH]ncc1-c1cnc2[nH]cc(-c3ccc(OCCN4CCOCC4)nc3)c2n1 [II-2, 2-(5-methyl-1H-pyrazol-4-yl)-7-[6-(2-morpholin-4-yl-ethoxy)-pyridin-3-yl]-5H-pyrrolo[2,3-b]pyrazine]	5700
46.7	Cc1[nH]ncc1-c1cnc2[nH]cc(-c3ccc(OCC4CC4)nc3)c2n1 [II-8, 7-(6-cyclopropylmethoxy-pyridin-3-yl)-2-(5-methyl-1H-pyrazol-4-yl)-5H-pyrrolo[2,3-b]pyrazine]	5900
29.9	Cc1[nH]ncc1-c1cnc2[nH]cc(-c3ccc(NCc4ccccc4)nc3)c2n1 [II-7, benzyl-{5-[2-(5-methyl-1H-pyrazol-4-yl)-5H-pyrrolo[2,3-b]pyrazin-7-yl]-pyridin-2-yl}-amine]	5700
218	Cc1nc(C(=O)NCc2cncc(-c3c[nH]c4ncc(-c5cn[nH]c5)nc34)c2)c(C)o1 [II-5, 2,5-dimethyl-oxazole-4-carboxylic acid {5-[2-(1H-pyrazol-4-yl)-5H-pyrrolo[2,3-b]pyrazin-7-yl]-pyridin-3-ylmethyl}-amide]	≥ 50000
